Data as given in paper PMC11362529, “Exploring the neuroprotective potential of Nrf2-pathway activators against annonacin toxicity” (Scientific Reports, 2024).

What was measured:
Type in all cases: cell-based, human
4R-tau transcripts = assay: 4R-tau mRNA and 4R-/3R-tau ratio by RT-qPCR; details: 48 h
Description: LUHMES cells were seeded on PLO/FN coated 6-well microplates and the pharmacological treatments were performed as previously explained. The cells were washed in HBSS, prior to being collected for mRNA isolation (RNeasy® Plus Mini Kit, Qiagen, Venlo, Netherlands), following the manufacturer’s instructions. The mRNA concentrations were determined on a Nano-Drop 2000c (Thermo Fisher Scientific) and 1 µg of mRNA was reverse-transcribed into cDNA with the iScript™ Reverse Transcription Supermix for RT-qPCR Kit (Bio-Rad) on a thermal cycler (SensoQuest, Göttingen, Germany). Real-time PCR was performed using SYBR™ Select Master Mix for CFX (Thermo Fisher Scientific) with 30 ng cDNA and 0.4 µM of primers against the respective target genes (Supplementary Table S3), in a 20 µl total volume, on a CFX96 Touch™ Real-Time Cycler (Bio-Rad). The relative expression of mRNA was calculated using the CFX Manager software (ΔΔCt method) from Bio-Rad, and the Ct values of the target-genes were normalized to the reference genes RPL22 and UBQLN1. The data were reported as fold change relative to the control (DMSO-treated) condition.

8-OHdG = assay: Oxidative DNA damage marker 8-OHdG immunofluorescence; details: 48 h; for 8-OHdG reactivity: protective concentration of compound + 20 nM annonacin
Description: (§1) For immunostaining, cells were seeded in differentiation medium, on 24-well microplates containing PLO/FN-coated 13 mm Ø coverslips, and treated for 48 h as previously described. On the readout day, the medium was removed and cells were fixed, permeabilized and blocked as before. Primary antibody dilutions were made in 1.5% NHS in PBS (Supplementary Table S1) and incubated overnight at 4 °C. On the following day, the coverslips were washed three times with PBS and incubated with host-specific fluorescence secondary antibodies (Supplementary Table S1), for 2 h at RT, protected from light. After another three washes with PBS, cell nuclei were stained with 1:5,000 DAPI (4’,6-diamidino-2-phenylindole, Thermo Fisher Scientific) in PBS, for 15 min at RT. The coverslips were mounted in mowiol and left to dry for 24 h before imaging. Image acquisition for FI quantification was done with a 200 × magnification (20 × objective, 10 × intermediate magnification), or 400x (40 × objective, 10 × intermediate magnification) in the case of pSC-35 and AT8 immunostaining, on a fluorescence microscope Leica-DFC9000GTC (Leica). In the case of phospho-tau AT8, Z-stacks consisting of 18 plane images with a step size of 1 μm were acquired. The image acquisition parameters were identical for all conditions. Quantification of 8-OHdG (8-hydroxyguanosine) FI and tau species was performed using the ImageJ software. Ten-to-fifteen images per condition across triplicates, from different view fields, were used for this purpose. Briefly, TIFF exported images were submitted to background subtraction using the rolling ball method with a radius of 50 pixels. For 8-OHdG analysis, a channel-specific threshold was applied to all images to define the ROI and FI was measured and normalized to the cell number, determined by the DAPI channel. The average value of the different view fields per experimental condition was taken and reported as fold change compared to the control (DMSO-treated) condition. For the analysis of phospho-tau AT270 and pan-tau reactivity, channel specific thresholds were applied to all images. The DAPI channel was used to define nuclei from viable cells, by selecting particles with a size above 15 µm^2 and a circularity of 0.3–1.0. […] These masks were used to quantify the number of somas expressing each of these tau species, as well as the respective FI. The number of AT270-positive somas was divided by the number of pan-tau-positive somas and expressed as a percentage. […] For quantification of pSC-35 and AT8 speckle number and FI, we used CellProfiler™ 4 (https://cellprofiler.org/, Broad Institute Inc., Cambridge, MA, USA) speckle counting pipeline. […]

SRSF2/SC-35 = assay: pSC-35 speckle immunofluorescence; details: 48 h
Description: as §1

LUHMES cells = assay: Mitochondrial activity by MTT reduction; details: 24 h; for MTT reduction: protective concentration of compound + 20 nM annonacin
Description: Mitochondrial activity was estimated by the reduction of MTT (3-(4,5-dimethylthiazol-2-yl)-2,5-diphenyltetrazolium, Sigma-Aldrich). Briefly, LUHMES cells were seeded on PLO/FN-coated 48-well microplates, in triplicates. After a 24 h treatment with 20 nM of annonacin and the protective concentrations of Nrf2-pathway activators in glucose-reduced medium, cells were incubated with 0.5 mg/ml of MTT dissolved in PBS, at 37 °C for 30 min. After that, the medium was removed and the plate was frozen at -80 °C for 1 h, for cell lysing. Next, the plate was thawed and the MTT crystals were completely dissolved in 250 µl of DMSO with vigorous shaking. The absorbance was measured on a FLUOstar® Omega plate reader at λ = 590 nm, using λ = 630 nm absorbance as a background correction. The obtained results were analyzed with the MARS data analysis software (BMG LabTech). After background subtraction, the data were expressed as a percentage of MTT reduction relative to the control (DMSO-treated) condition. Determination of cellular ATP levels was done by using the ViaLight™ plus kit (Lonza, Basel, Switzerland), following the manufacturer’s instructions. Cells were seeded on PLO/FN-coated 48-well microplates and the pharmacological treatments were done similarly as to the assessment of the MTT reduction. On the next day, the medium was removed and cells were washed once with warm HBSS and rested in 210 µl HBSS. The plate was left to reach RT before adding 70 µl cell lysis reagent to each well, provided by the kit. […] The plate was incubated in the dark for 10 min at RT before the luminescence signal was measured on a FLUOstar® Omega plate reader. The obtained results were analyzed with the MARS data analysis software (BMG LabTech) and expressed as RLUs. For background correction, the RLUs detected for the background control (i.e., 10 µl of ATP monitoring reagent plus combined with 10 µl of cell lysis reagent) were subtracted from the measured RLUs values of all testing conditions.

[1] = 15 μM ezetimibe + 20 nM annonacin

In the case of `O=C1[C@H](CC[C@H](O)c2ccc(F)cc2)[C@@H](c2ccc(O)cc2)N1c1ccc(F)cc1` [ezetimibe], the 4R-/3R-tau isoforms ratio (4R-tau transcripts; [1]) is reported as “remained similar to healthy control cells”, the 4R-tau transcripts (4R-tau transcripts; [1]) is reported as “prevented the annonacin-induced upregulation of 4R-tau transcripts” and the 8-OHdG reactivity (8-OHdG) is reported as “levels of oxidative DNA damage comparable to healthy control cells”. The “number of pSC-35 speckles per nucleus” value (SRSF2/SC-35; [1]) was “non-significant reduction of the number of speckles per nucleus”, the “pSC-35 fluorescence intensity per nucleus” value (SRSF2/SC-35; 15 μM ezetimibe + 20 nM annonacin, vs control) was “twofold” and the MTT reduction (LUHMES cells) was “further decreased the amount of MTT reduction”.

In the case of `CCCCCCCCCCCC[C@@H](O)[C@H]1CC[C@H]([C@H](O)CCCC[C@H](O)CCCCC[C@@H](O)CC2=CC(C)OC2=O)O1` (stereo partly drawn) [annonacin], the 4R-/3R-tau isoforms ratio (4R-tau transcripts; 20 nM annonacin alone) is reported as 3.5 fold over control, the “upregulation of 4R-tau transcripts over control cells” value (4R-tau transcripts; 20 nM annonacin alone) is reported as “twofold” and the “increase of 8-OHdG reactivity” value (8-OHdG; 20 nM annonacin alone) is reported as 1.5 fold over control. The “number of pSC-35 speckles per nucleus” value (SRSF2/SC-35; 20 nM annonacin alone) was “no changes in the number of pSC-35 speckles per nucleus”, the pSC-35 fluorescence intensity (SRSF2/SC-35; 20 nM annonacin alone) was “no changes” and the “decrease of reduced-MTT compared with healthy control cells” value (LUHMES cells; 20 nM annonacin alone) was 20%.

In the case of `C=CC(C)(C)c1cc(/C=C/C(=O)c2ccc(O)cc2)c(OC)cc1O` [licochalcone A], the 8-OHdG reactivity (8-OHdG) is reported as “levels of oxidative DNA damage comparable to healthy control cells” and the MTT reduction (LUHMES cells) is reported as “further decreased the amount of MTT reduction”.

`Cn1c(Nc2nc3ccc(C(F)(F)F)cc3s2)nc2cc(C(=O)NCCOCCO)ccc21` [HPP-D] was tested, and the 8-OHdG reactivity (8-OHdG) was “small but significant reduction of 8-OHdG reactivity”.
